In article PMC6704710, “Preclinical evaluation of 3D185, a novel potent inhibitor of FGFR1/2/3 and CSF-1R, in FGFR-dependent and macrophage-dominant cancer models” (Journal of Experimental & Clinical Cancer Research : CR, 2019):

Columns and labels:
Assay in all cases: Eurofins kinase panel
Format in all cases: biochemical
cKit(V560G)(h) = target: T1, cKit(V560G)(h) (Homo sapiens, UniProt P10721, V560G); conditions: read-out: Inhibition rate (%)
T1 construct: purchased Eurofins (KinaseProfiler)

RIPK1(h) = target: T2, RIPK1(h) (Homo sapiens, UniProt Q13546); conditions: read-out: Inhibition rate (%)
T2 construct: purchased Eurofins (KinaseProfiler)
T2 sequence (Q13546 1-671): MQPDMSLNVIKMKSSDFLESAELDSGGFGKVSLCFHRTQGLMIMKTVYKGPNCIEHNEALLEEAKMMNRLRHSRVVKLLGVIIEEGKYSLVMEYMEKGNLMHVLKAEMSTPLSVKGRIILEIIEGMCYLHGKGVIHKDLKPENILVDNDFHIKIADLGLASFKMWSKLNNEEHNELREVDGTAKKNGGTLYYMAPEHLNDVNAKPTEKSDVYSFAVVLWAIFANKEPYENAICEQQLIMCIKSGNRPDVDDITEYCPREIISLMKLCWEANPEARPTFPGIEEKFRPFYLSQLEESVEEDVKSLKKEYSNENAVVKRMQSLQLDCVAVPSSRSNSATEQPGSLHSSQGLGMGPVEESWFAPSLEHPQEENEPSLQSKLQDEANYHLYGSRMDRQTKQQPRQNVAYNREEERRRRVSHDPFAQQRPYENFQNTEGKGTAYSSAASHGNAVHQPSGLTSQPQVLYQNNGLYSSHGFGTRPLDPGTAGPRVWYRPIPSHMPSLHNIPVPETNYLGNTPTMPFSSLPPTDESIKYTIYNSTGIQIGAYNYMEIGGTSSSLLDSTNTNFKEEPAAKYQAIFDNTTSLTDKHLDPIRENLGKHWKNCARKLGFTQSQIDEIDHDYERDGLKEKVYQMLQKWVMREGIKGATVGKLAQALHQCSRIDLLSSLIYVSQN

CDK18/cyclinY(h) = target: T3, CDK18/cyclinY(h) (Homo sapiens, UniProt Q07002); conditions: read-out: Inhibition rate (%)
T3 construct: purchased Eurofins (KinaseProfiler)
T3 sequence (Q07002 whole entry): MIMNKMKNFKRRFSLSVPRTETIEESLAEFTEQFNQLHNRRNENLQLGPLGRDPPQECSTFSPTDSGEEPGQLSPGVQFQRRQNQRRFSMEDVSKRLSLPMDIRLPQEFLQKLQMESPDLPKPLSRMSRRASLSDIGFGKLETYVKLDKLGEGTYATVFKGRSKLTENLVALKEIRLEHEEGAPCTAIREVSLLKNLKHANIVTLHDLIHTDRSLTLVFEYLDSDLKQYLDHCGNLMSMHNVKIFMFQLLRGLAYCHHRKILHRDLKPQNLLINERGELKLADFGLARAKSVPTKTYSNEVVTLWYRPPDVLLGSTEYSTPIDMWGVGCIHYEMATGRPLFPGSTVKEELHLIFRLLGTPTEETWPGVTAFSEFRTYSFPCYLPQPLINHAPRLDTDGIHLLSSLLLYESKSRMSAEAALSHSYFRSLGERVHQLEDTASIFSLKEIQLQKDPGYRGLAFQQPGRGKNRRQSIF
T3 sequence (Q8ND76 whole entry partner): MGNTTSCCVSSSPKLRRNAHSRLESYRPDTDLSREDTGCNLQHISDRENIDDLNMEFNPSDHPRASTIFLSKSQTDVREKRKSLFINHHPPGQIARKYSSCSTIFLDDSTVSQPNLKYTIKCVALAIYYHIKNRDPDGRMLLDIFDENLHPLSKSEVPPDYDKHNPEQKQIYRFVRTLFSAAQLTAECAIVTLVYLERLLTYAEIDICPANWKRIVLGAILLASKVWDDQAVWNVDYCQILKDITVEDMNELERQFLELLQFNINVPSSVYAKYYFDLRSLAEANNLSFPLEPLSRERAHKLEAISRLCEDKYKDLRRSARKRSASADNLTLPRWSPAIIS

NEK2(h) = target: T4, NEK2(h) (Homo sapiens, UniProt P51955); conditions: read-out: Inhibition rate (%)
T4 construct: purchased Eurofins (KinaseProfiler)
T4 sequence (P51955 1-445): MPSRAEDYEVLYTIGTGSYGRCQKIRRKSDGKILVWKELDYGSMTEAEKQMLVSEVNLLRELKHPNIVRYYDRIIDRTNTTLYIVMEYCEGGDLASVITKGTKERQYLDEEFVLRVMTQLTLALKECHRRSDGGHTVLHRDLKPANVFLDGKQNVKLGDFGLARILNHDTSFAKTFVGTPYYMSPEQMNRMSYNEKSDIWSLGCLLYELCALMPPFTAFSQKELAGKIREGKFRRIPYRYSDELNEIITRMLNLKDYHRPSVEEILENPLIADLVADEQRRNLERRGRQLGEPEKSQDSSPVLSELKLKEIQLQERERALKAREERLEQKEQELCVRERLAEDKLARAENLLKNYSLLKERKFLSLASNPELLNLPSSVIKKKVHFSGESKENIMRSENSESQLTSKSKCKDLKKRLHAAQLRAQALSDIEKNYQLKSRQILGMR

FGFR3(h) = FGFR3(h) (Homo sapiens, UniProt P22607)
Sequence of FGFR3(h) (P22607 23-806): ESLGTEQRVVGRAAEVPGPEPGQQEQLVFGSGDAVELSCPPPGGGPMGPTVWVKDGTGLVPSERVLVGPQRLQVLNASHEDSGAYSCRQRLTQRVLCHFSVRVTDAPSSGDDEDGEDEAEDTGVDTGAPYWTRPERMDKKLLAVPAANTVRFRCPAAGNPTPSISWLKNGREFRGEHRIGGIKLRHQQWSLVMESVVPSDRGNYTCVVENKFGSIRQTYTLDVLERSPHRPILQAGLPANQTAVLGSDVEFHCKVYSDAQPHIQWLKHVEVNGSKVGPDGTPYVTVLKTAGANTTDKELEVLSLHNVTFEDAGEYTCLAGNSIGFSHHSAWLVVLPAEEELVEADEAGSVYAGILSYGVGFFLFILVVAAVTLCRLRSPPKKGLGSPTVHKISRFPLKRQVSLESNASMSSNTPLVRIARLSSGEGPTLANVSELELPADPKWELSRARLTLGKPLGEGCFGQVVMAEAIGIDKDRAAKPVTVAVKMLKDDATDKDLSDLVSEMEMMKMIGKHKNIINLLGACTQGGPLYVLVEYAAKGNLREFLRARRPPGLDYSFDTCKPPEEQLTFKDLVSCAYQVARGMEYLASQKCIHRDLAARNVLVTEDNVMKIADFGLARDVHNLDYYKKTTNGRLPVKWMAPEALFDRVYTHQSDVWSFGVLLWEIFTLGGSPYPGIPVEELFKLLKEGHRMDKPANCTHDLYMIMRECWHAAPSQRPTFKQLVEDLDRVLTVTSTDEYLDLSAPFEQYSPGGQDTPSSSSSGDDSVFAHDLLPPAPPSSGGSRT

TLK1(h) = target: T5, TLK1(h) (Homo sapiens, UniProt Q9UKI8); conditions: read-out: Inhibition rate (%)
T5 construct: purchased Eurofins (KinaseProfiler)
T5 sequence (Q9UKI8 1-766): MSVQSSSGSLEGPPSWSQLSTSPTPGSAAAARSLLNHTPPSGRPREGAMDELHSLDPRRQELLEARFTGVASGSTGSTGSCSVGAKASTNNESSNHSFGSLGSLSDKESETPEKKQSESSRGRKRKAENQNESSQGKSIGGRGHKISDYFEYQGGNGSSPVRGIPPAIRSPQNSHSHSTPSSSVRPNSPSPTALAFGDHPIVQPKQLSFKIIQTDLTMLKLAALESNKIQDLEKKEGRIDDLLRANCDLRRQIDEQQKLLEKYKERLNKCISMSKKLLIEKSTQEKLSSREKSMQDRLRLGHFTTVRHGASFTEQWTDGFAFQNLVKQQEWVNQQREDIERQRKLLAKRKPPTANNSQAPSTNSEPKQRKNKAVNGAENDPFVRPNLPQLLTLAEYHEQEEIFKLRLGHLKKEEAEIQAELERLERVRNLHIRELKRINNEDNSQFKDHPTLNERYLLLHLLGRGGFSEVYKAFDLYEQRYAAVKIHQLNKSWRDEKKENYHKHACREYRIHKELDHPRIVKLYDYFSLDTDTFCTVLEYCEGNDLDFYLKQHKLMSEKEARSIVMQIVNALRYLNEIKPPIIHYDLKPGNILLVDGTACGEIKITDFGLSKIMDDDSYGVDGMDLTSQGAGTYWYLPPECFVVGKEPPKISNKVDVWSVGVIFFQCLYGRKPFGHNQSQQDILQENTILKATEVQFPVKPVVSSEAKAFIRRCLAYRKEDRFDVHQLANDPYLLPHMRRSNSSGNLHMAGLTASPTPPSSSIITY

WNK1(h) = target: T6, WNK1(h) (Homo sapiens, UniProt Q9H4A3); conditions: read-out: Inhibition rate (%)
T6 construct: purchased Eurofins (KinaseProfiler)
T6 sequence (Q9H4A3 whole entry): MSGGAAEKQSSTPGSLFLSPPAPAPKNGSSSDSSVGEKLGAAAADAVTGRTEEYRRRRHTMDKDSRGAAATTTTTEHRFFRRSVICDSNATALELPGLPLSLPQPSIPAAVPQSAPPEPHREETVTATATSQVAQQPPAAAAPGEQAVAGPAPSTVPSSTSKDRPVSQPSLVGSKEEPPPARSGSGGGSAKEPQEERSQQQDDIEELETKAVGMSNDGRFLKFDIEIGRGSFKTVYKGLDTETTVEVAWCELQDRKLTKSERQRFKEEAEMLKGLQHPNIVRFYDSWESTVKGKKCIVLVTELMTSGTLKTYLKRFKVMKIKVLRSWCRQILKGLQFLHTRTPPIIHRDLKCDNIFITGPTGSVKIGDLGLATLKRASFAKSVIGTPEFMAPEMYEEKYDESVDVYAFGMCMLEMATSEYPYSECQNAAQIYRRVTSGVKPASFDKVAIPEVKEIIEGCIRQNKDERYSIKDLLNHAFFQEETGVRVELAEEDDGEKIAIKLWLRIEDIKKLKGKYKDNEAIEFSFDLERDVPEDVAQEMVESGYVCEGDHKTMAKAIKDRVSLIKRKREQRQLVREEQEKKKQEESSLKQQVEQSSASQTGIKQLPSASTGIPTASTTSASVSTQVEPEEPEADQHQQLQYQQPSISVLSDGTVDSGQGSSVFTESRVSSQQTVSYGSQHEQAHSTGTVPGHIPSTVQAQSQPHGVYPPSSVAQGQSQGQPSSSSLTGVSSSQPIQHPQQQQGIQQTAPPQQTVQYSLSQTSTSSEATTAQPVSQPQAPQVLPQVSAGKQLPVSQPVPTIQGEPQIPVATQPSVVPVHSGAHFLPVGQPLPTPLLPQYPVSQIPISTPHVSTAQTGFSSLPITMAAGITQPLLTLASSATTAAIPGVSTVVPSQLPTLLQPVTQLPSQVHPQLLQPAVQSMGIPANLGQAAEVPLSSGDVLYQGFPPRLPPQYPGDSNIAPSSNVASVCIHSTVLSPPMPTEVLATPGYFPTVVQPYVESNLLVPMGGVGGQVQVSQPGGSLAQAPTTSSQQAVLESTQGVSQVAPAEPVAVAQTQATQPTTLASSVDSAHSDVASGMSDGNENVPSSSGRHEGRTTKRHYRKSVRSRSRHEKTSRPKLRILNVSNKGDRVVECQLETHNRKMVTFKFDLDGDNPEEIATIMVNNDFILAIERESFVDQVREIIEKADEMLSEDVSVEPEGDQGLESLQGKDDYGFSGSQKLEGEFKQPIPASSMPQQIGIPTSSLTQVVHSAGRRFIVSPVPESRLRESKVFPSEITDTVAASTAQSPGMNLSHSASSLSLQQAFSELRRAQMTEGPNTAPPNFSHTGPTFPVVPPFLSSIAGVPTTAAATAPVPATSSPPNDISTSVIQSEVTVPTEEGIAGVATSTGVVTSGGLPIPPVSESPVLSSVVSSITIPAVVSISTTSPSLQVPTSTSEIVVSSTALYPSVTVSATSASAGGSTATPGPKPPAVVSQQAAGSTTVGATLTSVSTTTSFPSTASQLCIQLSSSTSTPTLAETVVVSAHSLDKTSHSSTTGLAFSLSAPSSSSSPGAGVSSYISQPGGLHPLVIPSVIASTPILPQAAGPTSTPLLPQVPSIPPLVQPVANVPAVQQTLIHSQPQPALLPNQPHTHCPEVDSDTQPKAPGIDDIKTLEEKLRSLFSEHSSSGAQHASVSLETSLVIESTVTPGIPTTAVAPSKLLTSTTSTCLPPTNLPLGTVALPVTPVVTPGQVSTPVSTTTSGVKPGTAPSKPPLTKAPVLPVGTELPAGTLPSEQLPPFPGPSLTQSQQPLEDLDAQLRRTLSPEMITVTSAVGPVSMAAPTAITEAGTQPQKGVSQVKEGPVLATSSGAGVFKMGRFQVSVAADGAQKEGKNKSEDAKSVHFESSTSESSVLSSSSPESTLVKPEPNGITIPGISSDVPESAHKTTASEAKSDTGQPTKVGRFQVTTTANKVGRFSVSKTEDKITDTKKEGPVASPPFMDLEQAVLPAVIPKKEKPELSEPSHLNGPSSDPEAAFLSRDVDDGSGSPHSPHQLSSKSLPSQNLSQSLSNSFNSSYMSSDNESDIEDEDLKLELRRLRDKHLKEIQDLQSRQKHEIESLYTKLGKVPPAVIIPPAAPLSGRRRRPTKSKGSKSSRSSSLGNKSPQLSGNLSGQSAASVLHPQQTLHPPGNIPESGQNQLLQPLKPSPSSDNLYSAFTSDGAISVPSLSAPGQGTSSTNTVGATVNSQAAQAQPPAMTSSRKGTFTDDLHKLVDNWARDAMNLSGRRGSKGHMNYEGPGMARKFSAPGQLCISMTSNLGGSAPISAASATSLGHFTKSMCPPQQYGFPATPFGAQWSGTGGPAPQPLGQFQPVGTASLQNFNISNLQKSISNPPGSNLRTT

Hck(h) activated = target: T7, Hck(h) activated (Homo sapiens, UniProt P08631); conditions: read-out: Inhibition rate (%)
T7 construct: purchased Eurofins (KinaseProfiler)
T7 sequence (P08631 whole entry): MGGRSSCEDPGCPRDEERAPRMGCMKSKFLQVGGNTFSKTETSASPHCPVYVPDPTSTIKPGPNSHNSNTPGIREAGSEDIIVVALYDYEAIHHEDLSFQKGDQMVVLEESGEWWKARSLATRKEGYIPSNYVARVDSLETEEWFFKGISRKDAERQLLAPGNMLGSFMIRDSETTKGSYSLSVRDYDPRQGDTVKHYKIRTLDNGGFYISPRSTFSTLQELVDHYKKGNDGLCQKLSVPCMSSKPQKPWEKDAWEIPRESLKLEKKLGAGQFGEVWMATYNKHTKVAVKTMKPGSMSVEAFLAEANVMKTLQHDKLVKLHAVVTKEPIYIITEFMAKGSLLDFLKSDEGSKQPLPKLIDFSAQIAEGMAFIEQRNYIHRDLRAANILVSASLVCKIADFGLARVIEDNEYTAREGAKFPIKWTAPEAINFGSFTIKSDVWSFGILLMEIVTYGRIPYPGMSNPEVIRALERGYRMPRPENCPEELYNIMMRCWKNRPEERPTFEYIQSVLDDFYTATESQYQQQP

PTK5(h) = target: T8, PTK5(h) (Homo sapiens, UniProt P42685); conditions: read-out: Inhibition rate (%)
T8 construct: purchased Eurofins (KinaseProfiler)
T8 sequence (P42685 whole entry): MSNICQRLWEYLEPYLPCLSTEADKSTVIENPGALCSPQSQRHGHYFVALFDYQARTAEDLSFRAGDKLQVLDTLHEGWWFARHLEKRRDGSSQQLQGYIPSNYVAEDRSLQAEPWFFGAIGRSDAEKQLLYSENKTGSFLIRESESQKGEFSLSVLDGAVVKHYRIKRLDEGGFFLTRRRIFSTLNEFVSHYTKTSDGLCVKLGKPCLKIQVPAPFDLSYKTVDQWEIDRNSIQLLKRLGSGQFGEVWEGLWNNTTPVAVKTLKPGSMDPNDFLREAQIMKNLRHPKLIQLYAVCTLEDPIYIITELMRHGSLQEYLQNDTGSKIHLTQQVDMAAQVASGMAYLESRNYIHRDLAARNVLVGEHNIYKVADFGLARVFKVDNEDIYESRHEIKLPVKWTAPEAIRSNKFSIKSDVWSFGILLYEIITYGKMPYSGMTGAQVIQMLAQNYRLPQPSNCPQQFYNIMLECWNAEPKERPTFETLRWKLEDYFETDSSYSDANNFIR

Question: How did the inhibition at 0.01 µM (cKit(V560G)(h); 10 nM) turn out when `COc1cc(OC)c(Cl)c(-c2ccc3c(NC(=O)c4ccc(N5CCNC(C)(C)C5)cc4)n[nH]c3n2)c1Cl` [3D185] was run?
Answer: The inhibition at 0.01 µM was 10%.

Question: What about the inhibition at 0.1 µM (cKit(V560G)(h); 100 nM) of the same compound?
Answer: Its inhibition at 0.1 µM is 38%.

Question: And the inhibition at 1 µM (cKit(V560G)(h); 1000 nM)?
Answer: Its inhibition at 1 µM is 71%.

Question: And the inhibition at 0.01 µM (RIPK1(h); 10 nM)?
Answer: Its inhibition at 0.01 µM is 4%.

Question: What about the inhibition at 0.1 µM (RIPK1(h); 100 nM) of the same compound?
Answer: Its inhibition at 0.1 µM is 86%.

Question: And the inhibition at 1 µM (RIPK1(h); 1000 nM)?
Answer: The inhibition at 1 µM was 99%.

Question: What about the inhibition at 0.01 µM (CDK18/cyclinY(h); 10 nM) of the same compound?
Answer: Its inhibition at 0.01 µM is 10%.

Question: And the inhibition at 0.1 µM (CDK18/cyclinY(h); 100 nM)?
Answer: Its inhibition at 0.1 µM is 12%.

Question: And the inhibition at 1 µM (CDK18/cyclinY(h); 1000 nM)?
Answer: Its inhibition at 1 µM is 15%.

Question: What about the inhibition at 0.01 µM (NEK2(h); 10 nM) of the same compound?
Answer: Its inhibition at 0.01 µM is 15%.

Question: And the inhibition at 0.1 µM (NEK2(h); 100 nM)?
Answer: Its inhibition at 0.1 µM is 67%.

Question: And the inhibition at 1 µM (NEK2(h); 1000 nM)?
Answer: The inhibition at 1 µM was 94%.

Question: What about the IC50 (FGFR3(h); estimated from 372-kinase panel) of the same compound?
Answer: The IC50 was less than 10 nM.

Question: What about the inhibition at 0.01 µM (FGFR3(h); read-out: Inhibition rate (%)) of the same compound?
Answer: The inhibition at 0.01 µM was 94%.

Question: What about the inhibition at 0.1 µM (FGFR3(h); read-out: Inhibition rate (%)) of the same compound?
Answer: Its inhibition at 0.1 µM is 99%.

Question: And the inhibition at 1 µM (FGFR3(h); read-out: Inhibition rate (%))?
Answer: Its inhibition at 1 µM is 100%.

Question: And the inhibition at 0.01 µM (TLK1(h); 10 nM)?
Answer: The inhibition at 0.01 µM was -1%.

Question: And the inhibition at 0.1 µM (TLK1(h); 100 nM)?
Answer: Its inhibition at 0.1 µM is -4%.

Question: What about the inhibition at 1 µM (TLK1(h); 1000 nM) of the same compound?
Answer: Its inhibition at 1 µM is -8%.

Question: And the inhibition at 0.01 µM (WNK1(h); 10 nM)?
Answer: Its inhibition at 0.01 µM is 3%.

Question: What about the inhibition at 0.1 µM (WNK1(h); 100 nM) of the same compound?
Answer: Its inhibition at 0.1 µM is 2%.

Question: What about the inhibition at 1 µM (WNK1(h); 1000 nM) of the same compound?
Answer: Its inhibition at 1 µM is 16%.

Question: What about the inhibition at 0.01 µM (Hck(h) activated; 10 nM) of the same compound?
Answer: Its inhibition at 0.01 µM is 6%.

Question: And the inhibition at 0.1 µM (Hck(h) activated; 100 nM)?
Answer: Its inhibition at 0.1 µM is 44%.

Question: And the inhibition at 1 µM (Hck(h) activated; 1000 nM)?
Answer: The inhibition at 1 µM was 87%.

Question: What about the inhibition at 0.01 µM (PTK5(h); 10 nM) of the same compound?
Answer: The inhibition at 0.01 µM was 19%.

Question: What about the inhibition at 0.1 µM (PTK5(h); 100 nM) of the same compound?
Answer: Its inhibition at 0.1 µM is 64%.

Question: And the inhibition at 1 µM (PTK5(h); 1000 nM)?
Answer: The inhibition at 1 µM was 91%.
